Data reported in US10435642B2, “Ionic liquids containing symmetric quaternary phosphonium cations and phosphorus-containing anions, and their use as lubricant additives” (UT-Battelle, LLC, priority 2014, dated 2019).

How the values were obtained:
[1] = Viscosity measurement of ionic liquids; assay type: physicochemical
Protocol: (§1) Density and Viscosity Measurements
(§2) The density and viscosity of [P8888][DEHP] were measured and compared with those of [P66614][DEHP] and [P44414][DEHP].

[2] = Density measurement of ionic liquids; assay type: physicochemical; details: neat ionic liquid
Protocol: as §1, §2

[3] = Corrosion test: droplet of ionic liquid on grey cast iron; details: observation in the corrosion test
From the text: A droplet of each IL was placed on the surface of a piece of grey cast iron.

[4] = Thermogravimetric analysis (TGA) thermal stability in air; assay type: physicochemical
From the text: ZDDP, when decomposed, left about a 20% solid residue (“ash”) because of its zinc content. In contrast, all decomposition products of the ionic liquids were gaseous, thus confirming their “ashless” nature.

tetraoctylphosphonium bis(2-ethylhexyl)phosphate [[P8888][DEHP]]
η (viscosity) 40° C. [1]: 608 cP | η (viscosity) 100° C. [1]: 68 cP | Oil-solubility in ExxonMobil PAO 4 cSt base oil (ExxonMobil PAO 4 cSt base oil): >50 wt % | ρ (density) [2]: 0.86 g/cc

tributyltetradecylphosphonium bis(2-ethylhexyl)phosphate [[P44414][DEHP]]
η (viscosity) 40° C. [1]: 252 cP | η (viscosity) 100° C. [1]: 25 cP | Oil-solubility in Chevron SAE 10 W base oil (Chevron SAE 10 W base oil): <1 wt % | Oil-solubility in Shell GTL 4 cSt base oil (Shell GTL 4 cSt base oil): <1 wt % | Hydrophobicity compared to the other ionic liquids [3]: lower hydrophobicity | ρ (density) [2]: 0.88 g/cc

trihexyltetradecylphosphonium bis(2-ethylhexyl)phosphate [[P66614][DEHP]]
η (viscosity) 40° C. [1]: 390 cP | η (viscosity) 100° C. [1]: 45 cP | ρ (density) [2]: 0.91 g/cc

zinc dialkyldithiophosphate [ZDDP]
Solid residue (ash) after decomposition [4]: ~20%
